Reference: patent publication US9636427B2, “Process for preparing a pharmaceutical formulation of contrast agents” (GUERBET, priority 2008, dated 2017)

test: Lethal dose (LD50) of free macrocyclic chelates, excipients X[X',L] and Gd chelates, table 1 of U.S. Pat. No. 7,385,041; conditions: times better LD50 than free DOTA

Structure (SMILES) | LD50 of Na2[Ca-DOTA] relative to free DOTA
O=C([O-])CN1CCN(CC(=O)[O-])CCN(CC(=O)[O-])CCN(CC(=O)[O-])CC1.[Ca+2].[Na+].[Na+] [Na2 [Ca-DOTA]] | at least 40 times

test: not given; conditions: values from table 1 of U.S. Pat. No. 7,385,041; cited from earlier work

Structure (SMILES) | Letal dose (LD 50) [mmol/kg]
O=C([O-])CN1CCNCCN(CC(=O)[O-])CCN(CC(=O)[O-])CC1.O=C([O-])CN1CCNCCN(CC(=O)[O-])CCN(CC(=O)[O-])CC1.[Ca+2].[Ca+2].[Ca+2] [Ca[Ca-DO3A]2.] | 1.6
CC(O)CN1CCN(CC(=O)[O-])CCN(CC(=O)[O-])CCN(CC(=O)[O-])CC1.CC(O)CN1CCN(CC(=O)[O-])CCN(CC(=O)[O-])CCN(CC(=O)[O-])CC1.[Ca+2].[Ca+2].[Ca+2] (stereo not drawn) [Ca[Ca-HPDO3A]2] | 1.3
O=C(O)CN1CCNCCN(CC(=O)O)CCN(CC(=O)O)CC1 [DO3A] | 0.12
O=C(O)CN1CCN(CC(=O)O)CCN(CC(=O)O)CCN(CC(=O)O)CC1 [DOTA, 1,4,7,10-Tetraazacyclododecane-N,N′,N″,N″′-tetraacetic acid] | 0.18
O=C([O-])CN1CCN(CC(=O)[O-])CCN(CC(=O)O)CCN(CC(=O)[O-])CC1.[Gd+3] [DOTA-Gd] | 14
CC(O)CN1CCN(CC(=O)[O-])CCN(CC(=O)[O-])CCN(CC(=O)[O-])CC1.[Gd+3] (stereo not drawn) [HP-DO3A-Gd] | 12
CC(O)CN1CCN(CC(=O)O)CCN(CC(=O)O)CCN(CC(=O)O)CC1 (stereo not drawn) [HP-DO3A] | 0.11
O=C([O-])CN1CCN(CC(=O)[O-])CCN(CC(=O)[O-])CCN(CC(=O)[O-])CC1.[Ca+2].[Na+].[Na+] [Na2 [Ca-DOTA]] | >7
